Source: PubChem BioAssay AID256 (DTP/NCI, 2004)
“And” between values parts separate entries of the source, which are not always exact repeats. Equal values may be shown once. Toxic doses and inconclusive results are not listed. Rule for the calls: active = survival T/C of 150% or more; inactive = T/C below 125% in these data.

Tested on: CD2F1 mice, L1210 leukemia ip, survival T/C
Assay: NCI In Vivo Anticancer Drug Screen. Data for tumor model L1210 Leukemia (intraperitoneal) in CD2F1 (CDF1) mice
Settings: higher = longer survival
Outline: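 Tumor-bearing mice (transplanted tumor) were split into treated and vehicle control groups, and the measured endpoint of each treated group was divided by that of its vehicle controls.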

[1] = endpoint: mean survival time, dose: 100.0 mg/kg/injection, schedule: Q01DX009 (ip), vehicle: saline
[2] = endpoint: mean survival time, dose: 100.0 mg/kg/injection, schedule: Q04DX003 (ip), vehicle: saline with Tween-80
[3] = endpoint: mean survival time, dose: 200.0 mg/kg/injection, schedule: Q01DX009 (ip), vehicle: saline
[4] = endpoint: mean survival time, dose: 200.0 mg/kg/injection, schedule: Q04DX003 (ip), vehicle: saline with Tween-80
[5] = endpoint: mean survival time, dose: 400.0 mg/kg/injection, schedule: Q04DX003 (ip), vehicle: saline with Tween-80
[6] = endpoint: mean survival time, dose: 100.0 mg/kg/injection, schedule: Q01DX009 (ip), vehicle: saline with Tween-80
[7] = endpoint: mean survival time, dose: 50.0 mg/kg/injection, schedule: Q04DX002 (ip), vehicle: saline with Tween-80
[8] = endpoint: mean survival time, dose: 100.0 mg/kg/injection, schedule: Q04DX002 (ip), vehicle: saline with Tween-80
[9] = endpoint: mean survival time, dose: 200.0 mg/kg/injection, schedule: Q04DX002 (ip), vehicle: saline with Tween-80
[10] = endpoint: mean survival time, dose: 25.0 mg/kg/injection, schedule: Q01DX009 (ip), vehicle: saline with Tween-80
[11] = endpoint: mean survival time, dose: 50.0 mg/kg/injection, schedule: Q01DX009 (ip), vehicle: saline with Tween-80
[12] = endpoint: mean survival time, dose: 200.0 mg/kg/injection, schedule: Q01DX009 (ip), vehicle: saline with Tween-80
[13] = endpoint: mean survival time, dose: 400.0 mg/kg/injection, schedule: Q01DX009 (ip), vehicle: saline with Tween-80
[14] = endpoint: mean survival time, dose: 50.0 mg/kg/injection, schedule: Q01DX009 (ip), vehicle: saline
[15] = endpoint: mean survival time, dose: 400.0 mg/kg/injection, schedule: Q04DX002 (ip), vehicle: saline with Tween-80
[16] = endpoint: mean survival time, dose: 100.0 mg/kg/injection, schedule: Q01DX001 (ip), vehicle: saline with Tween-80
[17] = endpoint: mean survival time, dose: 200.0 mg/kg/injection, schedule: Q01DX001 (ip), vehicle: saline with Tween-80
[18] = endpoint: mean survival time, dose: 400.0 mg/kg/injection, schedule: Q01DX001 (ip), vehicle: saline with Tween-80

Measured: T/C

O=C(Nc1cccc([N+](=O)[O-])c1)c1cc2ccccc2cc1O
inactive: [1] 101 % of control | [2] 95 % of control | [3] 97 % of control | [4] 95 % of control | endpoint: mean survival time, dose: 400.0 mg/kg/injection, schedule: Q01DX009 (ip), vehicle: saline 98 % of control | [5] 87 % of control

C#CC(CC(C)CC(C)(C)C)N(C)C (centres undefined)
inactive: [6] 98 % of control

C1CC2(CCC13CS3)CS2 (centres undefined)
inactive: [7] 98 % of control | [8] 98 % of control | [9] 95 % of control

C/C(C(=O)O)=C(\C)C(=O)O
inactive: endpoint: mean survival time, dose: 100.0 mg/kg/injection, schedule: Q01DX005 (ip), vehicle: saline 101 % of control | endpoint: mean survival time, dose: 200.0 mg/kg/injection, schedule: Q01DX005 (ip), vehicle: saline 101 % of control | endpoint: mean survival time, dose: 400.0 mg/kg/injection, schedule: Q01DX005 (ip), vehicle: saline 101 % of control

O=C(N/N=C\c1cc(Br)cc(Br)c1O)N/N=C/c1cc(Br)cc(Br)c1O
inactive: [10] 117 % of control | [11] 104 % of control and 111 % of control | [6] 116 % of control and 122 % of control | [12] 118 % of control and 94 % of control | [13] 116 % of control and 88 % of control

O=S(=O)(Cc1ccc(Cl)cc1Cl)Cc1ccc(Cl)cc1Cl
inactive: endpoint: mean survival time, dose: 100.0 mg/kg/injection, schedule: Q01DX009 (ip), vehicle: Klucel (hydroxypropylcellulose) (HPC) 98 % of control | endpoint: mean survival time, dose: 200.0 mg/kg/injection, schedule: Q01DX009 (ip), vehicle: Klucel (hydroxypropylcellulose) (HPC) 91 % of control | endpoint: mean survival time, dose: 400.0 mg/kg/injection, schedule: Q01DX009 (ip), vehicle: Klucel (hydroxypropylcellulose) (HPC) 92 % of control

COc1ccc(OCCC(=O)O)cc1
inactive: [14] 119 % of control | [1] 105 % of control | [3] 105 % of control

COc1ccc(Br)cc1C1OC(=O)c2c(OC)c(OC)cc([N+](=O)[O-])c21 (centres undefined)
inactive: [2] 92 % of control | [4] 93 % of control

CNC(=O)Nc1cc(C)ccc1OC
inactive: [14] 106 % of control | [1] 101 % of control | [3] 107 % of control

COC(C)(C)O/N=C(\C[n+]1ccccc1)c1ccccc1
inactive: endpoint: mean survival time, dose: 12.5 mg/kg/injection, schedule: Q01DX009 (ip), vehicle: water 95 % of control | endpoint: mean survival time, dose: 25.0 mg/kg/injection, schedule: Q01DX009 (ip), vehicle: water 91 % of control | endpoint: mean survival time, dose: 50.0 mg/kg/injection, schedule: Q01DX009 (ip), vehicle: water 90 % of control

CCOC(=O)CC1CC(CN)(C(=O)OCC)CO1 (centres undefined)
inactive: [2] 95 % of control | [4] 95 % of control | [5] 100 % of control

COc1ccn(C2OC(=O)C(C)(C)C2=O)c(=O)n1 (centres undefined)
inactive: endpoint: median survival time, dose: 12.5 mg/kg/injection, schedule: Q01DX005 (ip), vehicle: saline 101 % of control | endpoint: median survival time, dose: 25.0 mg/kg/injection, schedule: Q01DX005 (ip), vehicle: saline 100 % of control | endpoint: median survival time, dose: 50.0 mg/kg/injection, schedule: Q01DX005 (ip), vehicle: saline 101 % of control | endpoint: median survival time, dose: 100.0 mg/kg/injection, schedule: Q01DX005 (ip), vehicle: saline 101 % of control | endpoint: median survival time, dose: 200.0 mg/kg/injection, schedule: Q01DX005 (ip), vehicle: saline 100 % of control

CC(=O)O.[La]
inactive: endpoint: mean survival time, dose: 200.0 mg/kg/injection, schedule: Q01DX001 (ip), vehicle: saline 94 % of control

OC(CF)CF
inactive: endpoint: mean survival time, dose: 12.5 mg/kg/injection, schedule: Q01DX009 (ip), vehicle: saline 106 % of control | endpoint: mean survival time, dose: 25.0 mg/kg/injection, schedule: Q01DX009 (ip), vehicle: saline 118 % of control

O=c1c2ccccc2c(-c2ccccc2)nn1Cc1ccccc1
inactive: [2] 103 % of control | [4] 108 % of control | [5] 98 % of control

CCCCC(Sc1n[nH]c(=O)[nH]c1=O)C(=O)OCC (centres undefined)
inactive: endpoint: mean survival time, dose: 12.5 mg/kg/injection, schedule: Q01DX005 (ip), vehicle: distilled water + Tween-80 96 % of control | endpoint: mean survival time, dose: 25.0 mg/kg/injection, schedule: Q01DX005 (ip), vehicle: distilled water + Tween-80 100 % of control | endpoint: mean survival time, dose: 50.0 mg/kg/injection, schedule: Q01DX005 (ip), vehicle: distilled water + Tween-80 96 % of control | endpoint: mean survival time, dose: 100.0 mg/kg/injection, schedule: Q01DX005 (ip), vehicle: distilled water + Tween-80 103 % of control | endpoint: mean survival time, dose: 200.0 mg/kg/injection, schedule: Q01DX005 (ip), vehicle: distilled water + Tween-80 97 % of control

O=C(Nc1nncs1)c1ccncc1
inactive: endpoint: mean survival time, dose: 12.5 mg/kg/injection, schedule: Q01DX009 (ip), vehicle: saline with Tween-80 95 % of control and 112 % of control | [10] 115 % of control and 92 % of control | [11] 103 % of control | [12] 123 % of control and 94 % of control | [13] 110 % of control

Cc1cc(C(=O)O)c(CC(=O)O)o1
inactive: [8] 104 % of control | [9] 104 % of control | [15] 86 % of control

O=C(O)CNC(=O)C(CN1CC(=O)OC1c1ccc([N+](=O)[O-])cc1)N1C(=O)c2ccccc2C1=O (centres undefined)
inactive: endpoint: mean survival time, dose: 100.0 mg/kg/injection, schedule: Q04DX003 (ip), vehicle: saline sonified 92 % of control | endpoint: mean survival time, dose: 200.0 mg/kg/injection, schedule: Q04DX003 (ip), vehicle: saline sonified 88 % of control | endpoint: mean survival time, dose: 400.0 mg/kg/injection, schedule: Q04DX003 (ip), vehicle: saline sonified 92 % of control

N#CC(=N)N1CCN(C(=N)C#N)CC1
inactive: endpoint: mean survival time, dose: 25.0 mg/kg/injection, schedule: Q04DX002 (ip), vehicle: saline with Tween-80 93 % of control | [7] 86 % of control | endpoint: mean survival time, dose: 100.0 mg/kg/injection, schedule: Q01DX001 (ip), vehicle: saline 97 % of control

COc1cc(/C=C2/CCCCC2=O)ccc1O
inactive: endpoint: mean survival time, dose: 100.0 mg/kg/injection, schedule: Q01DX009 (ip), vehicle: other 104 % of control | endpoint: mean survival time, dose: 200.0 mg/kg/injection, schedule: Q01DX009 (ip), vehicle: other 98 % of control | endpoint: mean survival time, dose: 400.0 mg/kg/injection, schedule: Q01DX009 (ip), vehicle: other 98 % of control

Cc1c2ccccc2c(C)c2cnccc12
inactive: [6] 97 % of control | [12] 97 % of control | [13] 92 % of control

O=C1Nc2ccccc2/C1=C/c1c[nH]c2ccccc12
inactive: [7] 103 % of control | [8] 90 % of control | [9] 107 % of control

Cc1c2ccccc2c(CN(C)CC(=O)NCC(=O)NCC(=O)O)c2ccccc12
inactive: [16] 103 % of control | [17] 92 % of control | [18] 92 % of control

COc1cc(OC)c(NC(=O)Nc2ccc(N(C)C(C)=O)cc2)cc1Cl
inactive: [11] 88 % of control | [6] 88 % of control | [12] 88 % of control

Cc1cc(C)nc(NS(=O)(=O)c2ccc(NCN3C(=O)c4ccccc4C3=O)cc2)n1
inactive: [16] 101 % of control | [6] 96 % of control | [17] 107 % of control | [12] 94 % of control | [18] 107 % of control | [13] 90 % of control

N#CC(C#N)=NNc1ccc(S(=O)(=O)c2ccc(NN=C(C#N)C#N)cc2)cc1
inactive: [6] 103 % of control | [12] 100 % of control | [13] 103 % of control

CC1(C)N=C(N)N=C(N)N1c1cccc(OCCOc2cccc(N)c2)c1
inactive: endpoint: mean survival time, dose: 25.0 mg/kg/injection, schedule: Q01DX001 (ip), vehicle: Klucel (hydroxypropylcellulose) (HPC) 97 % of control | endpoint: mean survival time, dose: 50.0 mg/kg/injection, schedule: Q01DX001 (ip), vehicle: Klucel (hydroxypropylcellulose) (HPC) 97 % of control

CCCN(CCC)c1ccc(C#N)cc1
inactive: endpoint: mean survival time, dose: 100.0 mg/kg/injection, schedule: Q04DX003 (ip), vehicle: Klucel (hydroxypropylcellulose) (HPC) 91 % of control | endpoint: mean survival time, dose: 200.0 mg/kg/injection, schedule: Q04DX003 (ip), vehicle: Klucel (hydroxypropylcellulose) (HPC) 92 % of control | endpoint: mean survival time, dose: 400.0 mg/kg/injection, schedule: Q04DX003 (ip), vehicle: Klucel (hydroxypropylcellulose) (HPC) 95 % of control

S=C(Nc1ccccn1)NC1CC2C=CC1C2 (centres undefined)
inactive: [16] 93 % of control | [17] 101 % of control | [18] 108 % of control

Fc1c(F)c(F)c([Si](c2c(F)c(F)c(F)c(F)c2F)(c2c(F)c(F)c(F)c(F)c2F)c2c(F)c(F)c(F)c(F)c2F)c(F)c1F
inactive: [6] 97 % of control | [12] 100 % of control | [13] 98 % of control

CCNC(=O)Nc1nc2ccccc2[nH]1
inactive: [11] 101 % of control

CC1=CC=CC(C)(C(Cl)Cl)C1=O (centres undefined)
inactive: [11] 97 % of control | [6] 89 % of control | [2] 96 % of control | [4] 103 % of control | endpoint: mean survival time, dose: 1200.0 mg/kg/injection, schedule: Q01DX009 (ip), vehicle: saline with Tween-80 93 % of control

Cc1ccc(S(=O)(=O)OCC2C3CC(c4ccccc43)C2COS(=O)(=O)c2ccc(C)cc2)cc1 (centres undefined)
inactive: [8] 102 % of control | [9] 111 % of control | [15] 95 % of control
